Test results taken from patent US8680012B2, “4-phenyl-pyrane-3,5-diones,4-phenyl-thiopyrane-3,6-diones and cyclohexanetriones as novel herbicides” (Syngenta Crop Protection LLC, priority 2006, dated 2014).

These molecules were tested on Amaranthus retroflexus (AMARE) (assay: Example B post-emergence herbicidal activity, glasshouse pot test). Details: 312 h, rate 250 g/ha, evaluated after 13 days, read-out: Post-emergence activity AMARE (100=total damage to plant; 0=no damage to plant).
Format: in vivo
Outline: (§1)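 Damage rated 13 days after treatment on a 0 (no damage) to 100 (total damage) scale. Spray of acetone/water (50:50) with 0.5% Tween 20 went onto soil-sown pots at day 1 (pre-emergence) or day 8 (post-emergence); glasshouse kept at 24/16 °C, 14 h light, 65% humidity.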

Compound	pest or weed control at 250 g/ha
CCc1ccc(-c2ccc(Cl)c([N+](=O)[O-])c2)cc1C1=C(O)C(C)(C)OC(C)(C)C1=O [Compound A-136]	0%
CCc1ccc(-c2ccc(Cl)c(Cl)c2Cl)cc1C1=C(O)C(C)(C)OC(C)(C)C1=O [Compound A-137]	30%
CCc1ccc(-c2ccc(Cl)c(F)c2Cl)cc1C1=C(O)C(C)(C)OC(C)(C)C1=O [Compound A-138]	60%
CCc1ccc(-c2cc(Cl)c(Cl)c(Cl)c2)cc1C1=C(O)C(C)(C)OC(C)(C)C1=O [Compound A-139]	50%

Each molecule was assayed on Avena fatua (AVEFA) in the same assay as above. Details: 312 h, rate 250 g/ha, evaluated after 13 days, read-out: Post-emergence activity AVEFA (100=total damage to plant; 0=no damage to plant).
Format: in vivo
Outline: as §1

Compound	pest or weed control at 250 g/ha
CCc1ccc(-c2ccc(Cl)c([N+](=O)[O-])c2)cc1C1=C(O)C(C)(C)OC(C)(C)C1=O [Compound A-136]	100%
CCc1ccc(-c2ccc(Cl)c(Cl)c2Cl)cc1C1=C(O)C(C)(C)OC(C)(C)C1=O [Compound A-137]	90%
CCc1ccc(-c2ccc(Cl)c(F)c2Cl)cc1C1=C(O)C(C)(C)OC(C)(C)C1=O [Compound A-138]	100%
CCc1ccc(-c2cc(Cl)c(Cl)c(Cl)c2)cc1C1=C(O)C(C)(C)OC(C)(C)C1=O [Compound A-139]	50%

These molecules were tested on Alopecurus myosuroides (ALOMY) in the same assay as above. Details: 312 h, rate 250 g/ha, evaluated after 13 days, read-out: Post-emergence activity ALOMY (100=total damage to plant; 0=no damage to plant).
Format: in vivo
Outline: as §1

Compound	pest or weed control at 250 g/ha
CCc1ccc(-c2ccc(Cl)c([N+](=O)[O-])c2)cc1C1=C(O)C(C)(C)OC(C)(C)C1=O [Compound A-136]	80%
CCc1ccc(-c2ccc(Cl)c(Cl)c2Cl)cc1C1=C(O)C(C)(C)OC(C)(C)C1=O [Compound A-137]	90%
CCc1ccc(-c2ccc(Cl)c(F)c2Cl)cc1C1=C(O)C(C)(C)OC(C)(C)C1=O [Compound A-138]	100%
CCc1ccc(-c2cc(Cl)c(Cl)c(Cl)c2)cc1C1=C(O)C(C)(C)OC(C)(C)C1=O [Compound A-139]	30%

What follows are molecules tested on Setaria faberi (SETFA) in the same assay as above. Details: 312 h, rate 250 g/ha, evaluated after 13 days, read-out: Post-emergence activity SETFA (100=total damage to plant; 0=no damage to plant).
Format: in vivo
Outline: as §1

Compound	pest or weed control at 250 g/ha
CCc1ccc(-c2ccc(Cl)c([N+](=O)[O-])c2)cc1C1=C(O)C(C)(C)OC(C)(C)C1=O [Compound A-136]	70%
CCc1ccc(-c2ccc(Cl)c(Cl)c2Cl)cc1C1=C(O)C(C)(C)OC(C)(C)C1=O [Compound A-137]	100%
CCc1ccc(-c2ccc(Cl)c(F)c2Cl)cc1C1=C(O)C(C)(C)OC(C)(C)C1=O [Compound A-138]	100%
CCc1ccc(-c2cc(Cl)c(Cl)c(Cl)c2)cc1C1=C(O)C(C)(C)OC(C)(C)C1=O [Compound A-139]	80%

What follows are molecules tested on Echinochloa crus-galli (ECHCG) in the same assay as above. Details: 312 h, rate 250 g/ha, evaluated after 13 days, read-out: Post-emergence activity ECHCG (100=total damage to plant; 0=no damage to plant).
Format: in vivo
Outline: as §1

Compound	pest or weed control at 250 g/ha
CCc1ccc(-c2ccc(Cl)c([N+](=O)[O-])c2)cc1C1=C(O)C(C)(C)OC(C)(C)C1=O [Compound A-136]	100%
CCc1ccc(-c2ccc(Cl)c(Cl)c2Cl)cc1C1=C(O)C(C)(C)OC(C)(C)C1=O [Compound A-137]	100%
CCc1ccc(-c2ccc(Cl)c(F)c2Cl)cc1C1=C(O)C(C)(C)OC(C)(C)C1=O [Compound A-138]	100%
CCc1ccc(-c2cc(Cl)c(Cl)c(Cl)c2)cc1C1=C(O)C(C)(C)OC(C)(C)C1=O [Compound A-139]	100%

These molecules were tested on Amaranthus retroflexus (AMARE) (assay: Example B pre-emergence herbicidal activity, glasshouse pot test). Details: 312 h, rate 250 g/ha, evaluated after 13 days, read-out: Pre-emergence activity AMARE (100=total damage to plant; 0=no damage to plant).
Format: in vivo
Outline: as §1

Compound	pest or weed control at 250 g/ha
CCc1ccc(-c2ccc(Cl)c([N+](=O)[O-])c2)cc1C1=C(O)C(C)(C)OC(C)(C)C1=O [Compound A-136]	0%
CCc1ccc(-c2ccc(Cl)c(Cl)c2Cl)cc1C1=C(O)C(C)(C)OC(C)(C)C1=O [Compound A-137]	0%
CCc1ccc(-c2ccc(Cl)c(F)c2Cl)cc1C1=C(O)C(C)(C)OC(C)(C)C1=O [Compound A-138]	20%
CCc1ccc(-c2cc(Cl)c(Cl)c(Cl)c2)cc1C1=C(O)C(C)(C)OC(C)(C)C1=O [Compound A-139]	0%

What follows are molecules tested on Avena fatua (AVEFA) in the same assay as above. Details: 312 h, rate 250 g/ha, evaluated after 13 days, read-out: Pre-emergence activity AVEFA (100=total damage to plant; 0=no damage to plant).
Format: in vivo
Outline: as §1

Compound	pest or weed control at 250 g/ha
CCc1ccc(-c2ccc(Cl)c([N+](=O)[O-])c2)cc1C1=C(O)C(C)(C)OC(C)(C)C1=O [Compound A-136]	80%
CCc1ccc(-c2ccc(Cl)c(Cl)c2Cl)cc1C1=C(O)C(C)(C)OC(C)(C)C1=O [Compound A-137]	90%
CCc1ccc(-c2ccc(Cl)c(F)c2Cl)cc1C1=C(O)C(C)(C)OC(C)(C)C1=O [Compound A-138]	90%
CCc1ccc(-c2cc(Cl)c(Cl)c(Cl)c2)cc1C1=C(O)C(C)(C)OC(C)(C)C1=O [Compound A-139]	0%

What follows are molecules tested on Alopecurus myosuroides (ALOMY) in the same assay as above. Details: 312 h, rate 250 g/ha, evaluated after 13 days, read-out: Pre-emergence activity ALOMY (100=total damage to plant; 0=no damage to plant).
Format: in vivo
Outline: as §1

Compound	pest or weed control at 250 g/ha
CCc1ccc(-c2ccc(Cl)c([N+](=O)[O-])c2)cc1C1=C(O)C(C)(C)OC(C)(C)C1=O [Compound A-136]	20%
CCc1ccc(-c2ccc(Cl)c(Cl)c2Cl)cc1C1=C(O)C(C)(C)OC(C)(C)C1=O [Compound A-137]	70%
CCc1ccc(-c2ccc(Cl)c(F)c2Cl)cc1C1=C(O)C(C)(C)OC(C)(C)C1=O [Compound A-138]	90%
CCc1ccc(-c2cc(Cl)c(Cl)c(Cl)c2)cc1C1=C(O)C(C)(C)OC(C)(C)C1=O [Compound A-139]	0%

What follows are molecules tested on Setaria faberi (SETFA) in the same assay as above. Details: 312 h, rate 250 g/ha, evaluated after 13 days, read-out: Pre-emergence activity SETFA (100=total damage to plant; 0=no damage to plant).
Format: in vivo
Outline: as §1

Compound	pest or weed control at 250 g/ha
CCc1ccc(-c2ccc(Cl)c([N+](=O)[O-])c2)cc1C1=C(O)C(C)(C)OC(C)(C)C1=O [Compound A-136]	30%
CCc1ccc(-c2ccc(Cl)c(Cl)c2Cl)cc1C1=C(O)C(C)(C)OC(C)(C)C1=O [Compound A-137]	100%
CCc1ccc(-c2ccc(Cl)c(F)c2Cl)cc1C1=C(O)C(C)(C)OC(C)(C)C1=O [Compound A-138]	100%
CCc1ccc(-c2cc(Cl)c(Cl)c(Cl)c2)cc1C1=C(O)C(C)(C)OC(C)(C)C1=O [Compound A-139]	70%

These molecules were tested on Echinochloa crus-galli (ECHCG) in the same assay as above. Details: 312 h, rate 250 g/ha, evaluated after 13 days, read-out: Pre-emergence activity ECHCG (100=total damage to plant; 0=no damage to plant).
Format: in vivo
Outline: as §1

Compound	pest or weed control at 250 g/ha
CCc1ccc(-c2ccc(Cl)c([N+](=O)[O-])c2)cc1C1=C(O)C(C)(C)OC(C)(C)C1=O [Compound A-136]	90%
CCc1ccc(-c2ccc(Cl)c(Cl)c2Cl)cc1C1=C(O)C(C)(C)OC(C)(C)C1=O [Compound A-137]	100%
CCc1ccc(-c2ccc(Cl)c(F)c2Cl)cc1C1=C(O)C(C)(C)OC(C)(C)C1=O [Compound A-138]	100%
CCc1ccc(-c2cc(Cl)c(Cl)c(Cl)c2)cc1C1=C(O)C(C)(C)OC(C)(C)C1=O [Compound A-139]	30%
